In patent US20150265644A1, “THERAPEUTIC METHODS AND COMPOSITIONS FOR TREATING DIABETES UTILIZING DITERPENOID COMPOUNDS” (Orient Europharma Co., Ltd., priority 2014, published 2015):

Key:
[1] = test system: C2C12 skeletal muscle cells; assay: Glycogen content assay in differentiated C2C12 myotubes; format: cell-based; details: 30 minutes
Protocol: (§1) The C2C12 skeletal muscle cells were cultured in Dulbecco's modified Eagle's medium (DMEM; Gibco/Invitrogen, Carlsbad, Calif.), and the human hepatocellular carcinoma cell line, Hl-ep3B, was cultured in Roswell Park Memorial Institute medium 1640 (RPMI 1640 medium; Gibco/Invitrogen, Carlsbad, Calif.). Cells were cultured at 37° C. in the humidified incubator supplied with 5% CO2. Culture mediums were supplemented with 4.5 mgmL^−1 glucose, penicillin 100 IUmL^−1, streptomycin 100 μgmL^−1 and 10% fetal bovine serum (Gibco/Invitrogen, Carlsbad, Calif.). Only C2C12 cells were then switched to 2% horse serum for 3 days after reaching the 70% confluence. Myotubes formation was achieved after 4 days of incubation, and the cells were used for subsequent experiments. Culture mediums were replaced by serum free DMEM or RPMI for 24 h before experiments (see e.g., procedure described in Sultan et al., 2006).
(§2) C2C12 and Hep3B cells were treated with 1 nM insulin, 100 μM metformin, and the assigned concentration of borapetoside A for 30 minutes. To develop the insulin resistance state of cells, C2C12 cells were incubated with IL-6 at 20 ngmL^−1 for 1 hour. Later, the cells were treated with 1 nM insulin, 100 μM metformin, and the assigned concentration of borapetoside A for 30 minutes. After the assigned treatment, cells were washed twice with phosphate buffered saline (PBS). Glycogen content was measured as previously described, with some modifications (see e.g., Savage et al., 2008). The protein concentrations of the cell lysates were determined by using Pierce BCA Protein Assay Kit (Thermo-Scientific, Rockford, Ill.). The glycogen content of each sample was normalized by total protein.

[2] = Plasma insulin level before and after treatment in mice; format: in vivo
Protocol: The 4-week-old male ICR mice were purchased from the Animal Center of the College of Medicine, National Taiwan University (Taipei, Taiwan) with delicate humane care. This animal study was conducted by following the University ethical guidelines and the ‘Guide for the Care and Use of Laboratory Animals’ published by the US National Institutes of Health (NIH publication no. 85-23, revised 1996). The animal experiments were approved by the Institutional Animal Care and Use Committee (IACUC) of the National Taiwan University (IACUC No. 20110073). Animals were housed in a room at the constant temperature, 22±1° C., with 12 hours light and dark cycles.
After three days of acclimatization, the mice had free access to a standard rodent chow (normal mice), a standard rodent chow after single 250 mgkg^−1 streptozotocin (STZ) intraperitoneal injection (TIDM mice), and a fat-rich chow diet and fructose-sweetened water (T2DM mice) for 4 weeks. The induction of Type 1 DM was assessed and confirmed when the mice had plasma glucose levels ≧350 mgdL^−1, accompanied with polyuria, hyperphagia and decreased body weight. The induction Type 2 DM in the mice was assessed by measuring fasting plasma glucose levels and confirmed when plasma glucose level was ≧150 mgdL^−1 after the 4-week induction. The animals were assigned randomly into three groups, with seven animals in each group. In group I, the mice were treated with vehicle, 2% DMSO in normal saline, as the negative control. In group II, the mice were intraperitoneally treated with borapetoside A (0.1-10 mgkg^−1). In […], the mice received intraperitoneally metformin (300 mgkg^−1; Sigma Chemical Co., St. Louis, Mo., U.S.A.) or insulin (0.5 IUkg^−1; Insulin Actrapid® HM; Novo Nordisk, Denmark). In the acute study, mice under anesthesia received a single intraperitoneal administration of borapetoside A, negative control, or positive control. In the subacute study, mice received intraperitoneal administrations of borapetoside A, vehicle, or insulin twice a day for seven days.
Blood samples were collected from the orbital vascular plexus of the mice under anesthesia. Blood samples were then centrifuged at 13000 rpm for 5 min, and the plasma samples were collected and kept on ice prior to the assay. The plasma glucose concentration was measured by Glucose Kit Reagent (Biosystems S.A., Barcelona, Spain) following the manufacturer's instructions, and the insulin levels were estimated using mouse insulin ELISA kit (Mercodia AB, Uppsala, Sweden).

soleus muscle = assay: Glycogen content in soleus muscle in vivo; design: species or system mice; details: 10 mgkg^−1 i.p., 60 minutes
Protocol: The mice were injected with borapetoside A (10 mgkg^−1, interperitoneal) for 60 minutes or insulin (0.5 IUkg^−1, interperitoneal) for 30 minutes. After the treatment, the anesthetic mice were sacrificed by cervical dislocation to collect the soleus muscle and liver. About 40 mg of each sample was dissolved in 1 mol/L KOH at 75° C. for 30 min. The dissolved homogenate was neutralized by glacial acetic acid and then incubated overnight in acetate buffer (0.3 mol/L sodium acetate, pH 4.8) containing amyloglucosidase (Sigma, St. Louis, Mo.). The mixture was then neutralized with 1 mol/L NaOH to stop the reaction. The glycogen contents in the tissue samples were determined as μg of glucose per mg of tissue (wet weight).

IL-6-treated C2C12 cells = assay: Glycogen content assay in IL-6-induced insulin resistant C2C12 cells; format: cell-based; details: 30 minutes
Protocol: as §1, §2

C[C@@]12C[C@@H](c3ccoc3)OC(=O)[C@@H]1C[C@@H]1OC(=O)[C@@]3(O)[C@@H](O[C@@H]4O[C@H](CO)[C@@H](O)[C@H](O)[C@H]4O)CC[C@@H]2[C@@]13C [borapetoside A]
fold increase of glycogen ([1]; 10^−6 mol/L): 1.49±0.15 fold | fold increase of glycogen ([1]; 10^−7 mol/L): 1.28±0.04 fold | fold increase of glycogen [1]: 1.53±0.10 fold | Plasma insulin ([2]; T1DM mice, 0.1 mg kg^−1, after-treatment): 22.7 ± 0.2 pmol/L | Plasma insulin ([2]; T1DM mice, 0.1 mg kg^−1, before-treatment): 22.9 ± 0.1 pmol/L | Plasma insulin ([2]; T1DM mice, 0.3 mg kg^−1, after-treatment): 22.7 ± 0.3 pmol/L | Plasma insulin ([2]; T1DM mice, 0.3 mg kg^−1, before-treatment): 22.9 ± 0.1 pmol/L | Plasma insulin ([2]; T1DM mice, 1 mg kg^−1, after-treatment): 23.0 ± 0.2 pmol/L | Plasma insulin ([2]; T1DM mice, 1 mg kg^−1, before-treatment): 23.1 ± 0.2 pmol/L | Plasma insulin ([2]; T1DM mice, 3 mg kg^−1, after-treatment): 23.0 ± 0.0 pmol/L | Plasma insulin ([2]; T1DM mice, 3 mg kg^−1, before-treatment): 23.1 ± 0.2 pmol/L | Plasma insulin ([2]; T1DM mice, 10 mg kg^−1, after-treatment): 23.0 ± 0.1 pmol/L | Plasma insulin ([2]; T1DM mice, 10 mg kg^−1, before-treatment): 23.1 ± 0.1 pmol/L | Plasma insulin ([2]; T2DM mice, 0.1 mg kg^−1, after-treatment): 134.5 ± 9.3 pmol/L | Plasma insulin ([2]; T2DM mice, 0.1 mg kg^−1, before-treatment): 140.5 ± 4.1 pmol/L | Plasma insulin ([2]; T2DM mice, 0.3 mg kg^−1, after-treatment): 149.0 ± 9.5 pmol/L | Plasma insulin ([2]; T2DM mice, 0.3 mg kg^−1, before-treatment): 133.0 ± 4.2 pmol/L | Plasma insulin ([2]; T2DM mice, 1 mg kg^−1, after-treatment): 123.7 ± 9.6 pmol/L | Plasma insulin ([2]; T2DM mice, 1 mg kg^−1, before-treatment): 126.8 ± 5.7 pmol/L | Plasma insulin ([2]; T2DM mice, 3 mg kg^−1, after-treatment): 184.3 ± 14.6 pmol/L | Plasma insulin ([2]; T2DM mice, 3 mg kg^−1, before-treatment): 138.3 ± 3.6 pmol/L | Plasma insulin ([2]; T2DM mice, 10 mg kg^−1, after-treatment): 205.3 ± 22.2 pmol/L | Plasma insulin ([2]; T2DM mice, 10 mg kg^−1, before-treatment): 134.9 ± 3.5 pmol/L | Plasma insulin ([2]; normal mice, 0.1 mg kg^−1, after-treatment): 68.3 ± 4.4 pmol/L | Plasma insulin ([2]; normal mice, 0.1 mg kg^−1, before-treatment): 61.0 ± 4.6 pmol/L | Plasma insulin ([2]; normal mice, 0.3 mg kg^−1, after-treatment): 129.4 ± 22.0 pmol/L | Plasma insulin ([2]; normal mice, 0.3 mg kg^−1, before-treatment): 63.4 ± 3.9 pmol/L | Plasma insulin ([2]; normal mice, 1 mg kg^−1, after-treatment): 118.8 ± 10.1 pmol/L | Plasma insulin ([2]; normal mice, 1 mg kg^−1, before-treatment): 66.1 ± 5.4 pmol/L | Plasma insulin ([2]; normal mice, 3 mg kg^−1, after-treatment): 121.2 ± 14.2 pmol/L | Plasma insulin ([2]; normal mice, 3 mg kg^−1, before-treatment): 64.4 ± 3.6 pmol/L | Plasma insulin ([2]; normal mice, 10 mg kg^−1, after-treatment): 108.2 ± 2.9 pmol/L | Plasma insulin ([2]; normal mice, 10 mg kg^−1, before-treatment): 68.9 ± 1.3 pmol/L | glycogen content in soleus muscle, % of vehicle control (soleus muscle; mice with type 1 DM): 155.6±8.6% | glycogen content in soleus muscle, % of vehicle control (soleus muscle; mice with type 2 DM): 171.8±12.0% | glycogen content in soleus muscle, % of vehicle control (soleus muscle; normal mice): 116.5±4.2% | fold increase of glycogen content (IL-6-treated C2C12 cells; IL-6-treated C2C12, 10^−6 mol/L): 1.64±0.05 fold | fold increase of glycogen content (IL-6-treated C2C12 cells; IL-6-treated C2C12, 10^−7 mol/L): 1.38±0.06 fold | fold increase of glycogen content (IL-6-treated C2C12 cells; IL-6-treated C2C12, 10^−8 mol/L): 1.35±0.08 fold
